Source: US9428465B2, “Acid ceramidase inhibitors and their use as medicaments” (FONDAZIONE ISTITUTO ITALIANO DI TECHNOLOGIA, priority 2012, dated 2016)

Assays:
SW403 cells [1] = assay: SW403 cell viability, MTT assay; format: cell-based, human
Description: Cells were seeded in 12- or 96-well plates in complete medium 24 hrs before treatment and then incubated for 24 hrs (single treatment) or 72 hrs (multiple treatments) with different drug concentrations in media without serum. Cell viability was then evaluated.
Alternatively, cell viability was assessed measuring mitochondrial functionality by the MIT assay, which is based on the reduction of the soluble tetrazolium salt MTT [(3-(4,5-dimethylthiazol-2-yl)-2,5-diphenyltetrazolium bromide] into insoluble formazan by mitochondria. Briefly, after treatment, cells were washed with PBS and incubated with 0.5 mg/ml, MTT for 2 hrs at room temperature, MTT reduction was quantified by absorbance at 570 nm using a UV-visible plate reader.

[2] = test system: human colon adenocarcinoma cell line SW403; assay: Ceramide levels in SW403 cells (lipid extraction, LC/MS); format: cell-based; settings: 3 μM, 3 hrs, vs. vehicle
Description: Lipids were extracted using a chloroform/methanol mixture (2:1 vol/vol, 3 mL) containing internal standards. The organic phases were collected, dried under nitrogen, and dissolved in methanol/chloroform (3:1 vol/vol) for LC/MS analyses.
Ceramides were analyzed by LC/MS^n, using a 1100-LC system (Agilent Technologies) equipped with an Ion Trap XCT and interfaced with ESI (Agilent Technologies). They were separated on a Poroshell 300 SB C18 column (2.1×75 mm i.d., 5 μm; Agilent Technologies) maintained at 30° C. A linear gradient of methanol in water containing 5 mM ammonium acetate and 0.25% acetic acid (from 80% to 100% of methanol in 3 man) was applied at a flow rate of 1 mL/min. […]
Tissue-derived ceramides were identified by comparison of their LC retention times and MS^n fragmentation patterns with those of authentic standards (Avanti Polar Lipids). Extracted ion chromatograms were used to quantify myristoyl ceramide (C140, m/z 510.5>492.5>264.3), palmitoyl ceramide (C16:0, m/z 538.5>520.3>264.3), stearoyl ceramide (C18:0 m/z 566.5>548.3>264.3), lignoceroylceramide (C24:0 m/z 650.5>632.3>264.3), nervonoylceramide (C24:1 m/z 648.5>630.3>264.3) and using lauroyl ceramide standard (m/z 482.5>464.5>264.3). […]

[3] = target: rat acid ceramidase (rAC) (Rattus norvegicus (Rat), UniProt Q6P7S1); assay: Rat acid ceramidase (rAC) enzymatic assay, LC/MS of lauric acid; format: biochemical; settings: rat acid ceramidase, 100 μM N-lauroyl ceramide, pH 4.5
Description: A lysosomal rat acid ceramidase (rAC) protein preparation was obtained from cells stably expressing rAC resuspended in 20 mM Tris HCl (pH 7.5) with 0.32 M sucrose. Samples were sonicated and centrifuged at 800×g for 15 min at 4° C. Supernatants were then centrifuged at 12,000×g for 30 min at 4° C. Pellets were re-suspended in PBS pH 7.4 and subjected to 2 freeze-thaw cycles at −80° C. The suspension was finally centrifuged at 105,000×g for 1 hr at 4° C. and the supernatant containing rAC was then used in the enzymatic assay.
r-AC protein samples were pre-incubated with various concentrations of test compounds or vehicle control in 100 mM NaH2PO4/citrate buffer pH 4.5, 0.1% Nonidet P-40, 3 mM DTT for 30 min at 37° C. Samples were incubated with 100 μM N-lauroyl ceramide (Nu-Chek Prep, Elysian, Minn.) at 37° for 30 min. The reaction was stopped by addition of a mixture of chloroform/methanol (2:1 vol/vol) containing 1 nmol of heptadecanoic acid (HDA; NuChek Prep). The organic phases were collected, dried under nitrogen, and analyzed by LC/MS in the negative-ion mode using heptadecanoic acid (HDA) as internal standard (m/z=199 for lauric acid, m/z=269 for HDA). HDA was eluted on an XDB Eclipse C18 column isocratically at 2.2 mL/min for 1 min with a solvent mixture of 95% methanol and 5% water, both containing 0.25% acetic acid, and 5 mM ammonium acetate. The column temperature was 50° C. Electrospray ionization (ESI) was in the negative mode, capillary voltage was 4 kV, and fragmentor voltage was 100 V. Nitrogen was used as drying gas at a flow rate of 13 L/min and at a temperature of 350° C. Nebulizer pressure was set at 60 psi. We monitored [M-H]− in the selected-ion monitoring (SIM) mode using HDA as internal standard.
Inhibition of rAC activity was calculated as a reduction of lauric acid in the samples compared to vehicle controls. Median inhibitory concentration (IC50) values were calculated by non-linear regression analysis of log [concentration]/inhibition curves using. GraphPad Prism 5 (GraphPad Software, Inc., CA, USA) applying a standard slope curve fitting.

SW403 cells [4] = assay: Isobolographic analysis of combined treatment of SW403 cells (ED50, trypan blue assay); format: cell-based, human
Description: Interaction between drugs was assessed by isobolographic analysis, based on the concept of dose-equivalence which follows from the dose effect curves of the individual drugs (Tallarida R I, Interactions between drugs and occupied receptors. Pharmacol. Ther. 2007, 113, 197-209; Tallarida R J, Raffa R B, The application of drug dose equivalence in the quantitative analysis of receptor occupation and drug combinations. Pharmacol. Ther. 2010; 127, 165-174). Specifically, the individual drugs' potency and efficacy allow calculating the expected effect of a combination of the two drugs.
In the experiment of combined treatment, isobolograms were constructed by plotting on vertical and horizontal axes the ED50 data of the single drugs measured by trypan blue assay after subcronic treatment for 72 hrs. The straight line with axial intercepts represents the isobole of additivity and allows calculating the theoretical additive dose. Synergism is indicated by an observed pair (x, y) that plots below the isobole for the specified effect, whereas sub-additivity is indicated when an observed pair (x, y) plots above the isobole.

[5] = SW403 cells, 72 hrs, isobole of additivity, higher than the experimental values

rat acid ceramidase (rAC), sequence (Q6P7S1 142-394): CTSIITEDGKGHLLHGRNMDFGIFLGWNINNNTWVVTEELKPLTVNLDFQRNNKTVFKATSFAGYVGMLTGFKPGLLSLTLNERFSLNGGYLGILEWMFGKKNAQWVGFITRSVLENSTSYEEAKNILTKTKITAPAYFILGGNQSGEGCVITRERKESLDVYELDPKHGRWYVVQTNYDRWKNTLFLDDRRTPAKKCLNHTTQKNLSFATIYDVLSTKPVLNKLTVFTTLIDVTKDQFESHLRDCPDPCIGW
rat acid ceramidase (rAC), sequence (Q6P7S1 21-141): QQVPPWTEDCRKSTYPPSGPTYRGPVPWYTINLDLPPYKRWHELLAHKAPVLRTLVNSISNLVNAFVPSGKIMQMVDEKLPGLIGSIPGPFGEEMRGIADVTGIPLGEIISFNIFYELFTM

`CCCCCCNC(=O)n1cc(Br)c(=O)[nH]c1=O` [Example 5, 5-bromo-N-hexyl-2,4-dioxo-pyrimidine-1-carboxamide] was tested, and the “interaction with 5FU in reducing cell viability (MTT assay)” value (SW403 cells [1]; 72 hrs, compound 30 μM + 5FU 300 nM) was “synergistic effect”, the “SW403 cell viability (MTT assay)” value (SW403 cells [1]; sub-chronic treatment 72 hrs, compounds 30 μM, 5FU 300 nM) was “reduced cell viability” and the “levels of C14:0, C16:0 and C18:0 ceramide” value [2] was “increased”. The IC50 [3] was 51 nM, the “theoretical dose (Th) to be used with 20 nM taxol to obtain an additive effect” value (SW403 cells [4]; [5]) was 9.5 µM and the “theoretical dose (Th) to be used with 300 nM 5FU to obtain an additive effect” value (SW403 cells [4]; [5]) was 14.9 µM. For the same compound, the “interaction with taxol in reducing viability of SW403 cells (isobologram)” value (SW403 cells [4]; prolonged treatment, 20 nM taxol, trypan blue ED50) was “synergistic effect” and the “interaction with 5-fluorouracil in reducing viability of SW403 cells (isobologram)” value (SW403 cells [4]; prolonged treatment, 300 nM 5FU, trypan blue ED50) was “synergistic effect”.
